The source of these data is PubChem BioAssay (NCI).

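48-hour exposure; five concentrations; linearly interpolated endpoints. The concentration for full growth arrest is given as TGI.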

Test systems include EKVX NSCLC; HL-60(TB) leukemia; KM12 colon; MCF7 breast; SF-268 CNS; SK-MEL-28 melanoma; SR leukemia; SW-620 colon; TK-10 renal.
Holding throughout (assay): NCI-60 cell line screen, 48 h

Regarding `CC(=O)OCCC1c2ccccc2-n2nc(-c3ccccc3)c(O)c21` (stereo not drawn), the TGI in the assay with EKVX NSCLC amounted to 36 µM; with HL-60(TB) leukemia, 38.4 µM; in the assay with KM12 colon, 38.5 µM; with MCF7 breast, 22.9 µM; in the assay on SF-268 CNS, 90.6 µM; with SK-MEL-28 melanoma it was 30.6 µM. Further, the figures for the TGI with SR leukemia, in the assay with SW-620 colon and with TK-10 renal were 38.7 µM, 31.6 µM and 43.2 µM, respectively.
As for `CCOC(=O)N1CCN(Cc2cc(=O)n3cc(C)ccc3n2)CC1`, the TGI with EKVX NSCLC, in the assay with HL-60(TB) leukemia, in the assay on KM12 colon, with MCF7 breast, in the assay on SF-268 CNS and in the assay on SK-MEL-28 melanoma was more than 100 µM each time. Also, the TGI with SR leukemia, with SW-620 colon and in the assay on TK-10 renal was more than 100 µM in each case.
With `Cc1cc2nc(N3C(=O)/C(=C/c4cccc([N+](=O)[O-])c4)N=C3c3ccccc3)sc2cc1C`, the TGI with EKVX NSCLC was 94.3 µM; in the assay on HL-60(TB) leukemia, 54.5 µM; in the assay with KM12 colon it was more than 100 µM; in the assay with MCF7 breast it was 43.9 µM; in the assay with SF-268 CNS, more than 100 µM; with SK-MEL-28 melanoma, more than 100 µM. Moreover, the TGI in the assay with SR leukemia is 35.1 µM; in the assay with SW-620 colon, more than 100 µM; with TK-10 renal it was more than 100 µM.
`O=[N+]([O-])c1ccc(Cl)cc1-n1nc(-c2ccccc2)cc1-c1ccccc1`: the TGI with EKVX NSCLC, in the assay with HL-60(TB) leukemia, in the assay with KM12 colon, in the assay with MCF7 breast, with SF-268 CNS and in the assay with SK-MEL-28 melanoma was more than 100 µM in each case. The TGI with SR leukemia, in the assay on SW-620 colon and in the assay with TK-10 renal was more than 100 µM in each case.
In the case of `N#Cc1ncn(-c2ccccc2)c1N`, the TGI in the assay with EKVX NSCLC, in the assay with HL-60(TB) leukemia, with KM12 colon, in the assay on MCF7 breast, with SF-268 CNS and in the assay with SK-MEL-28 melanoma was more than 100 µM throughout. For the same compound, the TGI in the assay on SR leukemia, in the assay with SW-620 colon and in the assay on TK-10 renal was more than 100 µM in each case.
With `CC[C@@H](CCCC[C@@H]1CC[C@H]2CC(=O)C[C@@H]12)OC`, the TGI in the assay on EKVX NSCLC, in the assay on HL-60(TB) leukemia, in the assay with KM12 colon, with MCF7 breast, in the assay with SF-268 CNS and with SK-MEL-28 melanoma was more than 100 µM each time. Further, the TGI with SR leukemia, in the assay on SW-620 colon and in the assay with TK-10 renal was more than 100 µM each time.
Take `CN(C)CCN1C(=O)CC[C@@]2(C)C1=CC[C@@H]1[C@@H]2CC[C@@]2(C)[C@H]1CC[C@]2(C)O`: the TGI with EKVX NSCLC, in the assay with HL-60(TB) leukemia, in the assay with KM12 colon, in the assay with MCF7 breast, in the assay with SF-268 CNS and with SK-MEL-28 melanoma was more than 100 µM each time. The TGI in the assay on SR leukemia, in the assay with SW-620 colon and with TK-10 renal was more than 100 µM throughout.
Take `CSC(SC)=C1C(=O)NN=C1C`: the TGI in the assay with EKVX NSCLC, with HL-60(TB) leukemia, in the assay with KM12 colon, in the assay with MCF7 breast, in the assay with SF-268 CNS and in the assay with SK-MEL-28 melanoma was more than 100 µM each time. The TGI in the assay with SR leukemia, in the assay with SW-620 colon and in the assay with TK-10 renal was more than 100 µM throughout.
For `Cc1cn(CC2=NCCN2)c(=O)[nH]c1=O`, the TGI in the assay with EKVX NSCLC, in the assay with HL-60(TB) leukemia, in the assay on KM12 colon, in the assay on MCF7 breast, in the assay with SF-268 CNS and in the assay with SK-MEL-28 melanoma was more than 100 µM throughout. Further, the TGI in the assay with SR leukemia, in the assay on SW-620 colon and in the assay on TK-10 renal was more than 100 µM throughout.
Consider `O=C1NCC2(CCNCC2)N1c1ccccc1`, for which the TGI with EKVX NSCLC, in the assay on HL-60(TB) leukemia, in the assay on KM12 colon, in the assay with MCF7 breast, in the assay on SF-268 CNS and with SK-MEL-28 melanoma was more than 100 µM in each case. The TGI in the assay with SR leukemia, in the assay on SW-620 colon and in the assay with TK-10 renal was more than 100 µM in each case.
As for `Cc1cc(S(N)(=O)=O)c(SCc2nc(N)nc(N(C)C)n2)cc1Cl`, the TGI in the assay on EKVX NSCLC, in the assay with HL-60(TB) leukemia, in the assay with KM12 colon, in the assay on MCF7 breast, in the assay on SF-268 CNS and in the assay on SK-MEL-28 melanoma was more than 10 µM throughout. Besides, the TGI with SR leukemia, in the assay on SW-620 colon and with TK-10 renal was more than 10 µM each time.
On to `COc1ccccc1/C=C1\Sc2scc(-c3cccc([N+](=O)[O-])c3)[n+]2C1=O`, for which the TGI worked out at 28 µM in the assay on EKVX NSCLC; 1.17 µM with HL-60(TB) leukemia; 25.2 µM in the assay on KM12 colon; 10.3 µM in the assay with MCF7 breast; 18 µM in the assay with SF-268 CNS; 65.2 µM in the assay on SK-MEL-28 melanoma. Besides, the figures for the TGI in the assay with SR leukemia, in the assay on SW-620 colon and with TK-10 renal were more than 100 µM, more than 36.4 µM and 10.7 µM, respectively.
Consider `CCOc1ccc2ccccc2c1NC1=NCCO1`, for which the TGI is more than 100 µM in the assay with EKVX NSCLC; 49.6 µM with HL-60(TB) leukemia; 76.7 µM in the assay on KM12 colon; more than 100 µM in the assay with MCF7 breast; more than 100 µM with SF-268 CNS; more than 100 µM in the assay on SK-MEL-28 melanoma. Further, the TGI in the assay with SR leukemia, in the assay with SW-620 colon and in the assay with TK-10 renal was more than 100 µM throughout.
`CN(C)CCOc1ccc(I)cc1Cc1ccccc1`: the TGI in the assay on EKVX NSCLC was 28.8 µM; with HL-60(TB) leukemia, 18.1 µM; in the assay with KM12 colon, 27 µM; in the assay with MCF7 breast, 27.5 µM; with SF-268 CNS, 27.4 µM; in the assay with SK-MEL-28 melanoma it was 16.6 µM. For the same compound, the TGI with SR leukemia came to 7.81 µM; in the assay with SW-620 colon, 32.4 µM; in the assay on TK-10 renal, 25.5 µM.
Regarding `O=C(CCCN1CCC2(CC1)C(=O)NC(=O)N2c1ccccc1)c1ccc(F)cc1`, the TGI in the assay on EKVX NSCLC, in the assay on HL-60(TB) leukemia, in the assay on KM12 colon, in the assay with MCF7 breast, with SF-268 CNS and in the assay with SK-MEL-28 melanoma was more than 100 µM throughout. The TGI in the assay on SR leukemia, in the assay on SW-620 colon and in the assay on TK-10 renal was more than 100 µM in each case.
For the compound `CC(=O)Oc1c(C)cc(-c2cc(C)c(OC(C)=O)c(C)c2)cc1C`, the TGI with EKVX NSCLC, in the assay on HL-60(TB) leukemia, in the assay on KM12 colon, in the assay on MCF7 breast, in the assay with SF-268 CNS and in the assay on SK-MEL-28 melanoma was more than 100 µM throughout. Moreover, the results for the TGI with SR leukemia, in the assay on SW-620 colon and in the assay with TK-10 renal were more than 100 µM, more than 100 µM and 91.6 µM, respectively.
Take `N#Cc1cccc(C2ON=C(c3ccc([N+](=O)[O-])cc3)N2C23CC4CC(CC(C4)C2)C3)c1` (stereo not drawn): the TGI with EKVX NSCLC, in the assay with HL-60(TB) leukemia, with KM12 colon, in the assay on MCF7 breast, in the assay on SF-268 CNS and in the assay with SK-MEL-28 melanoma was more than 100 µM in each case. The TGI in the assay with SR leukemia, in the assay with SW-620 colon and with TK-10 renal was more than 100 µM throughout.
As for `CC(=O)OCC1OC(Nc2ccc3nc(C)n(-c4cccc(C)c4)c(=O)c3c2)C(OC(C)=O)C(OC(C)=O)C1OC(C)=O` (stereo not drawn), the TGI with EKVX NSCLC, in the assay with HL-60(TB) leukemia, with KM12 colon, in the assay on MCF7 breast, in the assay with SF-268 CNS and in the assay on SK-MEL-28 melanoma was more than 62.5 µM each time. In addition, the TGI in the assay on SR leukemia, in the assay with SW-620 colon and in the assay with TK-10 renal was more than 62.5 µM each time.
Regarding `O=C(c1ccc(Cl)cc1Cl)N(Cc1cccnc1)C(=S)N(Cc1cccnc1)C(=O)c1ccc(Cl)cc1Cl`, the TGI amounted to 30.2 µM in the assay with EKVX NSCLC; 15.3 µM with HL-60(TB) leukemia; 18.8 µM with KM12 colon; 12.3 µM in the assay on MCF7 breast; 20.4 µM in the assay with SF-268 CNS; 33.7 µM with SK-MEL-28 melanoma. The TGI with SR leukemia is more than 100 µM; with SW-620 colon, 80.5 µM; with TK-10 renal, 8.7 µM.
In the case of `CN1CCN(c2nc3ccccc3nc2C(=O)c2ccc(Cl)cc2)CC1`, the TGI with EKVX NSCLC is more than 100 µM; in the assay on HL-60(TB) leukemia, 98 µM; in the assay on KM12 colon, more than 100 µM; in the assay on MCF7 breast, more than 100 µM; in the assay with SF-268 CNS, more than 100 µM; in the assay with SK-MEL-28 melanoma, more than 100 µM. Also, the TGI in the assay with SR leukemia, in the assay on SW-620 colon and in the assay with TK-10 renal was more than 100 µM each time.
For the compound `O=C(O)c1cccc(S(=O)(=O)NN2C(=O)CSC2c2ccccc2)c1` (stereo not drawn), the TGI in the assay with EKVX NSCLC, in the assay on HL-60(TB) leukemia, in the assay on KM12 colon, in the assay on MCF7 breast, with SF-268 CNS and in the assay with SK-MEL-28 melanoma was more than 100 µM each time. In addition, the TGI in the assay on SR leukemia, in the assay with SW-620 colon and in the assay on TK-10 renal was more than 100 µM throughout.
As to `O=c1[nH]c2cc(C(F)(F)F)ccc2nc1Cc1ccccc1`, the TGI in the assay on EKVX NSCLC, with HL-60(TB) leukemia, with KM12 colon, in the assay with MCF7 breast, in the assay on SF-268 CNS and in the assay on SK-MEL-28 melanoma was more than 100 µM each time. The TGI with SR leukemia, with SW-620 colon and in the assay with TK-10 renal was more than 100 µM in each case.
